Data: BigSolDB 2.1

O=C(O)[C@@H]1CSCN1
solubility (mole fraction)
Conditions | in 1,4-dioxane | in acetone | in acetonitrile | in dichloromethane | in ethanol | in ethyl acetate | in isopropanol | in methanol | in water
283.15 K | – | 0.00018 | 2.2e-05 | 1.5e-05 | 9e-05 | 2.3e-05 | 3.7e-05 | 5.5e-05 | 0.00296
288.15 K | 0.00035 | – | – | 5.1e-05 | – | – | – | – | –
293.15 K | 0.000384 | 0.000298 | 3e-05 | 0.000134 | 0.000125 | 7.2e-05 | 6.8e-05 | 7.4e-05 | 0.00383
298.15 K | – | – | – | 0.000208 | – | – | – | – | –
303.15 K | 0.000477 | 0.000537 | 4.8e-05 | 0.000292 | 0.00018 | 0.000158 | 9.8e-05 | 0.000112 | 0.00502
313.15 K | 0.000589 | 0.00135 | 6.8e-05 | – | 0.000254 | 0.000297 | 0.000127 | 0.000209 | 0.0062
323.15 K | 0.000708 | 0.00343 | 9.1e-05 | – | 0.000348 | 0.000471 | 0.00019 | 0.000315 | 0.00773
